From patent publication US20250099634A1, “METHOD OF TREATING CANCER” (Novartis AG, priority 2023, published 2025)

What was measured:
[1] = NETTER-2 serious adverse events in the randomized treatment period (Safety Set)
Description: All adverse events (AEs), whether or not spontaneously reported by the patient, will be recorded starting from the signing of the ICF until the end of the Treatment Phase. Safety summaries (tables, figures) include only data from the on-treatment period with the exception of baseline data which will also be summarized where appropriate (e.g. change from baseline summaries). In addition, a separate summary for death including on treatment and post treatment deaths will be provided. In particular, summary tables for adverse events (AEs) will summarize only on-treatment events, with a start date during the on-treatment period (treatment-emergent AEs).
Separate summaries will be provided for study medication related adverse events, death, serious adverse events, other significant adverse events leading to discontinuation and adverse events leading to dose adjustment.

[2] = test system: Grade 2 and Grade 3 advanced GEP-NET; assay: NETTER-2 Progression-Free Survival (PFS), central review using RECIST 1.1; assay type: in vivo, human; conditions: Full Analysis Set; for Kaplan-Meier event-free estimates (95% CI): PFS
Method: The primary efficacy end-point is PFS as measured by objective tumor response, which is determined by RECIST criteria, Version 1.1 (Eisenhauer, et al., 2009). Tumor response will be assessed locally and centrally.
It is recommended that for each patient identical acquisition and reconstruction protocols be used at all time-points. Central, blinded, real-time IRC (Independent Review Committee) assessment will be conducted for determining progressive disease. Changes from randomization date will be assessed at week 16±1, week 24±1 and then every 12±1 weeks until the PFS primary analysis End-Point has been reached, then until Week 72 after randomization, unless the patient progresses or dies.
The primary endpoint of the study is progression-free survival (PFS), defined as the time from the date of randomization to the date of the first documented progression or death due to any cause. PFS will be assessed via central review according to RECIST 1.1.
The stratification will be based on following randomization stratification factors (grade: G2 vs. G3; and tumor origin: pNET vs other origin).
Analyses will be based on the FAS population according to the randomized treatment group and strata assigned at randomization. The PFS distribution will be estimated using the Kaplan-Meier method, and Kaplan-Meier curves, median and associated 95% confidence intervals will be presented for each treatment group. The hazard ratio for PFS will be calculated, along with its 95% confidence interval, from a stratified Cox model using the same stratification factors as for the log-rank test.

[3] = All grades, randomized treatment period, Safety Set
[4] = Grade >=3, randomized treatment period, Safety Set
[5] = randomized treatment period, Safety Set

C[C@@H](O)[C@@H]1NC(=O)[C@H](CCCCN)NC(=O)[C@@H](Cc2c[nH]c3ccccc23)NC(=O)[C@H](Cc2ccccc2)NC(=O)[C@@H](NC(=O)[C@H](N)Cc2ccccc2)CSSC[C@@H](C(=O)N[C@H](CO)[C@@H](C)O)NC1=O [Octreotide LAR, octreotide]
29.2 (17.7, 41.7) %: Kaplan-Meier event-free estimates (95% CI) ([2]; 18 months)
19.5 (9.1, 32.7) %: Kaplan-Meier event-free estimates (95% CI) ([2]; 24 months)
1 (1.4) n (%): SAEs Related to Any Treatment [1, 3] | SAEs Related to Octreotide [1, 3] | Serious adverse event: Abdominal sepsis [1, 3] | Serious adverse event: Acute coronary syndrome [1, 3] | Serious adverse event: Acute kidney injury [1, 3] | Serious adverse event: Anaemia [1, 3] | Serious adverse event: Ascites [1, 3] | Serious adverse event: Blood bilirubin increased [1, 3] | Serious adverse event: Carcinoid heart disease [1, 3] | Serious adverse event: Carcinoid syndrome [1, 3] | Serious adverse event: Diarrhoea [1, 3] | Serious adverse event: Femur fracture [1, 3] | Serious adverse event: Gastroenteritis [1, 3] | Serious adverse event: Generalised oedema [1, 3] | Serious adverse event: Hip fracture [1, 3] | Serious adverse event: Hyperglycaemia [1, 3] | Serious adverse event: Hypertension [1, 3] | Serious adverse event: Hypoalbuminaemia [1, 3] | Serious adverse event: Intestinal obstruction [1, 3] | Serious adverse event: Jaundice [1, 3] | Serious adverse event: Lower gastrointestinal haemorrhage [1, 3] | Serious adverse event: Metabolic encephalopathy [1, 3] | Serious adverse event: Oedema peripheral [1, 3] | Serious adverse event: Pleurisy [1, 3] | Serious adverse event: Tumour lysis syndrome [1, 3] | SAEs Related to Any Treatment [1, 4] | SAEs Related to Octreotide [1, 4] | Serious adverse event: Abdominal sepsis [1, 4] | Serious adverse event: Acute kidney injury [1, 4] | Serious adverse event: Anaemia [1, 4] | Serious adverse event: Ascites [1, 4] | Serious adverse event: Blood bilirubin increased [1, 4] | Serious adverse event: Carcinoid heart disease [1, 4] | Serious adverse event: Carcinoid syndrome [1, 4] | Serious adverse event: Diarrhoea [1, 4] | Serious adverse event: Gastroenteritis [1, 4] | Serious adverse event: Generalised oedema [1, 4] | Serious adverse event: Hip fracture [1, 4] | Serious adverse event: Hyperglycaemia [1, 4] | Serious adverse event: Hypertension [1, 4] | Serious adverse event: Hypoalbuminaemia [1, 4] | Serious adverse event: Intestinal obstruction [1, 4] | Serious adverse event: Jaundice [1, 4] | Serious adverse event: Lower gastrointestinal haemorrhage [1, 4] | Serious adverse event: Metabolic encephalopathy [1, 4] | Serious adverse event: Oedema peripheral [1, 4] | Serious adverse event: Pleurisy [1, 4] | Serious adverse event: Tumour lysis syndrome [1, 4] | SAE with fatal outcome: Diarrhoea [1, 5] | SAE with fatal outcome: Tumor Lysis syndrome [1, 5]
73.5 (61.2, 82.4) %: Kaplan-Meier event-free estimates (95% CI) ([2]; 4 months)
36.4 (24.3, 48.5) %: Kaplan-Meier event-free estimates (95% CI) ([2]; 15 months)
41 (54.7) n (%): PFS events: Progression [2]
46 (61.3) n (%): PFS Events [2]
2 (2.7) n (%): Fatal SAEs [1, 3] | Fatal SAEs [1, 4] | SAEs with fatal outcome [1, 5] | SAEs with fatal outcome reported in subjects with primary reason for death = Disease under Study [1, 5]
19.3 (13.8, NE) months: PFS 75th percentile (95% CI) ([2]; central review, RECIST 1.1)
0 (%): Incidence of SAEs: Small intestinal obstruction ([1]; most frequent SAE, summary table)
8.5 months: Median PFS (95% CI) ([2]; central review, RECIST 1.1, listed as High-dose Octreotide)
64.5 (51.8, 74.6) %: Kaplan-Meier event-free estimates (95% CI) ([2]; 6 months)
8.5 (7.7, 13.8) months: Median PFS (95% CI) ([2]; central review, RECIST 1.1) | Median PFS (95% CI) ([2]; central review, RECIST 1.1, listed as high-dose Octreotide)
42.4 (30.0, 54.3) %: Kaplan-Meier event-free estimates (95% CI) ([2]; 12 months)
46.0 (33.4, 57.7) %: Kaplan-Meier event-free estimates (95% CI) ([2]; 9 months)
20.5%: Serious AEs ([1]; randomized treatment period)
0 n (%): Fatal SAEs Related to Any Treatment [1, 3] | Fatal SAEs Related to Octreotide [1, 3] | Serious adverse event: Abdominal pain [1, 3] | Serious adverse event: Gastrointestinal stoma complication [1, 3] | Serious adverse event: Pyrexia [1, 3] | Serious adverse event: Small intestinal obstruction [1, 3] | Fatal SAEs Related to Any Treatment [1, 4] | Fatal SAEs Related to Octreotide [1, 4] | Serious adverse event: Abdominal pain [1, 4] | Serious adverse event: Acute coronary syndrome [1, 4] | Serious adverse event: Femur fracture [1, 4] | Serious adverse event: Gastrointestinal stoma complication [1, 4] | Serious adverse event: Pyrexia [1, 4] | Serious adverse event: Small intestinal obstruction [1, 4] | SAE with fatal outcome: Blood bilirubin increased [1, 5] | SAE with fatal outcome: Dyspnoea [1, 5] | SAE with fatal outcome: Intestinal perforation [1, 5]
5 (6.7) n (%): PFS events: Deaths [2]
3.9 (3.7, 5.7) months: PFS 25th percentile (95% CI) ([2]; central review, RECIST 1.1)
1.4%: Serious AEs, Treatment-related ([1]; randomized treatment period)
